Assays:
[1] = Retention of chlorine in air dried coatings on hard surface substrate (iodometric titration); assay type: physicochemical; details: Formica coupons
Protocol: The purpose of this experiment was to measure the effect of binder plus SHA on retention of chlorine in air dried coatings of water-based N-halamine formulations on a hard surface substrate. The procedure used one gram of MCDMH with or without 0.2 grams of hydroxyethylcellulose binder and 0.1 grams of SHA dissolved in 100 ml of water as the surface treatments. Solutions of MCDMH, MCDMH plus binder and SHA containing equivalent amounts of oxidative chlorine were applied to 9 cm^2 of hard surface substrate (Formica coupons), and allowed to dry at room temperature in a chemical fume hood. Determinations of chlorine levels per cm^2 were made on coupons sampled after 4 hours, 24 hours, 48 hours, and 96 hours. The chlorine remaining on each surface was measured by iodometric titration of solutions obtained after soaking of test samples in deionized water for 1 hour at room temperature.

[2] = Retention of chlorine in air dried coatings on soft surface substrates (iodometric titration); assay type: physicochemical
Description: The purpose of this experiment was to measure the beneficial effect of binder plus SHA on retention of chlorine in air dried coatings of N-halamine formulations on a soft surface substrate. Solutions of MCDMH, MCDMH plus hydroxyethylcellulose binder plus SHA, each containing equivalent amounts of oxidative Cl were applied to 9 cm^2 of soft surface substrate (cotton fabrics or paper), and allowed to air dry at room temperature in a chemical fume hood. Determinations of chlorine per cm^2 were made on fabrics sampled after 4 hours, 24 hours, 48 hours, and 96 hours. The remaining chlorine was measured by iodometric titration after soaking of test samples in deionized water for 1 hour at room temperature.

- Chlorine Content ([1]; 4 h): 3.61 ×10^18 Cl/cm^2
- Chlorine Content ([1]; 24 h): 3.25 ×10^18 Cl/cm^2
- Chlorine Content ([1]; 48 h): 3.01 ×10^18 Cl/cm^2
- Chlorine Content ([1]; 96 h): 2.75 ×10^18 Cl/cm^2
- Chlorine Content ([2]; Cotton, 4 h): 2.41 ×10^18 Cl/cm^2
- Chlorine Content ([2]; Cotton, 24 h): 2.04 ×10^18 Cl/cm^2
- Chlorine Content ([2]; Cotton, 48 h): 1.56 ×10^18 Cl/cm^2
- Chlorine Content ([2]; Cotton, 96 h): 0.89 ×10^18 Cl/cm^2
- Chlorine Content ([2]; Paper, 4 h): 2.74 ×10^18 Cl/cm^2
- Chlorine Content ([2]; Paper, 24 h): 2.12 ×10^18 Cl/cm^2
- Chlorine Content ([2]; Paper, 48 h): 1.87 ×10^18 Cl/cm^2
- Chlorine Content ([2]; Paper, 96 h): 1.04 ×10^18 Cl/cm^2
SMILES: CC1(C)NC(=O)N(Cl)C1=O [MCDMH]

— patent US10028482B2, “Disinfecting and deodorizing compositions and methods with novel polymeric binding system” (priority 2014, dated 2018)
